From ChEMBL document CHEMBL1201862, “PubChem BioAssay data set” (2004)
Activity calls are given as the source filed them.

Experiments:
[1] = NIH-3T3 fibroblast cytotoxicity, dose response, cytotoxicity control, cell-based, fluorescence, Alamar Blue, secondary assay (AID 2327); type: functional;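 note: NIH-3T3 mouse fibroblasts cultured with fluconazole at 8 µg/mL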
[2] = C. albicans growth with fluconazole, confirmation, fluorescence, retest (AID 2467); type: functional, cell-based
[3] = molecular target: FAD-linked sulfhydryl oxidase ALR (Homo sapiens, UniProt P55789); experiment: inhibitors of human ALR sulfhydryl oxidase, dose response, biochemical, H2O2 detection, luminescence, cherry-pick (AID 493248)
Sequence of FAD-linked sulfhydryl oxidase ALR (P55789 whole entry): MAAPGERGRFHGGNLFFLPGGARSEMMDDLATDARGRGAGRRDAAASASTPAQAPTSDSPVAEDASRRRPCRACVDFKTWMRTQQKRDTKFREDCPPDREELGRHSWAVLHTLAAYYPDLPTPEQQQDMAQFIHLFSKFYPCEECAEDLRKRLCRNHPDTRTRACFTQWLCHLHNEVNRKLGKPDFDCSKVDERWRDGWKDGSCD

Cytochrome P450 1A2 = molecular target: T1, Cytochrome P450 1A2 (Homo sapiens, UniProt P05177);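 note: PubChem cytochrome P450 panel assay, CYP1A2 panel member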
T1 sequence (P05177 whole entry): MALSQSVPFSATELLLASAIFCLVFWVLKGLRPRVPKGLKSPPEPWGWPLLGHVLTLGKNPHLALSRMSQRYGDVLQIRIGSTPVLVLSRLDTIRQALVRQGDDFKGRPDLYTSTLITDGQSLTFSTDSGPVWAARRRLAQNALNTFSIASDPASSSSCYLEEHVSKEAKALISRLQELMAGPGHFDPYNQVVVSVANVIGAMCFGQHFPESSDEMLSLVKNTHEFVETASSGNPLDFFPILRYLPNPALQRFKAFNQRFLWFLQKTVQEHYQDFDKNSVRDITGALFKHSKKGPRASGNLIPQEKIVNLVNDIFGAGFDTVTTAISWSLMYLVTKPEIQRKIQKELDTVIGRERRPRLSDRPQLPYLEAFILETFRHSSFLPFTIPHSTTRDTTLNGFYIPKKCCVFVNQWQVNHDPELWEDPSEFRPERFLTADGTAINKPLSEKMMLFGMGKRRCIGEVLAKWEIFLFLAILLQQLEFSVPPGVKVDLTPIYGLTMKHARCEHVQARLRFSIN

Cytochrome P450 2C19 = Cytochrome P450 2C19 (Homo sapiens, UniProt P33261); experiment: Cytochrome panel assay with activity outcomes. Panel member name: p450-cyp2c19 Compounds with AC50 equal or less than 10 uM are considered active; type: functional; details: read-out: AC50
Sequence of Cytochrome P450 2C19 (P33261 whole entry): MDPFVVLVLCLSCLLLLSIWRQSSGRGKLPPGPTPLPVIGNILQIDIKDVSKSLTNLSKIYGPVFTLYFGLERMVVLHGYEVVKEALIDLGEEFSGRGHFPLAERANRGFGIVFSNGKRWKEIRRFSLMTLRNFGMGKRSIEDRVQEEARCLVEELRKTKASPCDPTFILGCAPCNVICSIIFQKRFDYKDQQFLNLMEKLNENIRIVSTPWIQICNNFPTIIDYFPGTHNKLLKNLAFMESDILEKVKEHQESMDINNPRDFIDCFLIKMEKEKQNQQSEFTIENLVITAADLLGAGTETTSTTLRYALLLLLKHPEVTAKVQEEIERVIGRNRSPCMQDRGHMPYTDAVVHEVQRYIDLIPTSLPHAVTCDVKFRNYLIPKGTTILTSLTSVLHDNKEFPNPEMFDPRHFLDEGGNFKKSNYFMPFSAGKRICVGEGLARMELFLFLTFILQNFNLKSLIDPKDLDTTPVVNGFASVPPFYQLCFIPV

Cytochrome P450 2D6 = Cytochrome P450 2D6 (Homo sapiens, UniProt P10635);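 note: CYP2D6 member of a cytochrome P450 panel assay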
Sequence of Cytochrome P450 2D6 (P10635 whole entry, the tested form may be a part): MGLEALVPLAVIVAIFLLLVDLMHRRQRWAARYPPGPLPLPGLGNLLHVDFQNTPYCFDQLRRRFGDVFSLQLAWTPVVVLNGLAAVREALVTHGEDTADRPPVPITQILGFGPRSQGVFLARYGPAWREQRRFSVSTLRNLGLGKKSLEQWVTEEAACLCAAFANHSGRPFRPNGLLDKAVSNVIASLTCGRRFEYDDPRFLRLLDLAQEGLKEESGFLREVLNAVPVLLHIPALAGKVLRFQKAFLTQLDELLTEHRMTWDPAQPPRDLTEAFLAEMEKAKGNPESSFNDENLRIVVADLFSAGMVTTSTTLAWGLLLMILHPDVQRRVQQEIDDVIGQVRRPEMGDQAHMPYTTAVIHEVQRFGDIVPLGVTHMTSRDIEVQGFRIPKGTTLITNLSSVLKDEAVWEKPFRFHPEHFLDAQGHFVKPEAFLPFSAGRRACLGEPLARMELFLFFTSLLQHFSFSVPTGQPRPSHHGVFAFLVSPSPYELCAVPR

[4] = molecular target: T2, RNA-binding protein pos-1 (Caenorhabditis elegans, UniProt G5EF15); experiment: inhibitors of POS-1/mex-3 RNA binding, dose response, biochemical, fluorescence polarization (AID 1964);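 note: purified POS-1 fused to maltose binding protein made in E. coli; potency of compounds blocking POS-1 binding to fluorescent RNA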
T2 sequence (G5EF15 whole entry): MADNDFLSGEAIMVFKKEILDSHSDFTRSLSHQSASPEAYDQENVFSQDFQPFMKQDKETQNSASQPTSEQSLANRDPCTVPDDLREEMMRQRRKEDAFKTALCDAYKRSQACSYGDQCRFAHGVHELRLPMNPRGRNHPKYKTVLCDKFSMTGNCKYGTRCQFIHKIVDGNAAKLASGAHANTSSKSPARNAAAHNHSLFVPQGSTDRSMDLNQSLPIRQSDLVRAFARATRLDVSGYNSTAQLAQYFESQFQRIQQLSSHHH

[5] = molecular target: T3, Zinc finger protein mex-5 (Caenorhabditis elegans, UniProt Q9XUB2); experiment: MEX-5/TCR-2 RNA interaction inhibitors, dose response, biochemical, C. elegans, fluorescence polarization (AID 1960)
T3 sequence (Q9XUB2 whole entry): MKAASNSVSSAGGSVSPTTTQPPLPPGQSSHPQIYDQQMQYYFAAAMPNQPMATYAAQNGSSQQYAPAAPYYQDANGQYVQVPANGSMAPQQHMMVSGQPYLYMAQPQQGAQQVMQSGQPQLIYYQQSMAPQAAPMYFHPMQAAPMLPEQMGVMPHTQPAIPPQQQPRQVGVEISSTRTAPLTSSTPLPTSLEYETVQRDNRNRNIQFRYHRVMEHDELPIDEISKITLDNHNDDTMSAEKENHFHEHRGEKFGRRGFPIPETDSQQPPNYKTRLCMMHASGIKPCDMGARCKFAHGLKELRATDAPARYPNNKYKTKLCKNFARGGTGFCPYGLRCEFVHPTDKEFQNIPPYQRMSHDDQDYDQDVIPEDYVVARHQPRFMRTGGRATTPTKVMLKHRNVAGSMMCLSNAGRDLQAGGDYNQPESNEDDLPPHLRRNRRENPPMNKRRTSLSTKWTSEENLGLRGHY

[6] = Luminescence Cell-Based Dose Retest to Confirm Inhibitors of Cancer Stem Cells. [Related pubchem assays (depositor defined):AID2717, AID2721]; type: functional; details: Homo sapiens
[7] = microbe, parasite or virus in culture; type: functional; details: Mycobacterium tuberculosis
Cytochrome P450 2C9 = Cytochrome P450 2C9 (Homo sapiens, UniProt P11712)
Sequence of Cytochrome P450 2C9 (P11712 whole entry): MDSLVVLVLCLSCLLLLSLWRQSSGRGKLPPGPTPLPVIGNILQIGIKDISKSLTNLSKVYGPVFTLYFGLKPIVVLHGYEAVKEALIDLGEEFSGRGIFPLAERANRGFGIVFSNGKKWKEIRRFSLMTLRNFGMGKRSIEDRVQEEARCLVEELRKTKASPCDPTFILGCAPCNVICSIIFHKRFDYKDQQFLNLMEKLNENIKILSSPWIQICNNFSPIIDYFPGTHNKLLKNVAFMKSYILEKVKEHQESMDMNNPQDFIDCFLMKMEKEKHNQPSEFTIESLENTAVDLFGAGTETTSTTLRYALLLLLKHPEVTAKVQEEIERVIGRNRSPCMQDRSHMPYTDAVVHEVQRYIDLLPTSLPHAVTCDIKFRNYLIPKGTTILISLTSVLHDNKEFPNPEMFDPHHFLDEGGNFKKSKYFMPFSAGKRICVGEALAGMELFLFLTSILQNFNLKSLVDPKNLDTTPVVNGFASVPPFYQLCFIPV

[8] = molecular target: T4, Corticotropin-releasing factor receptor 2/Corticotropin-releasing factor-binding protein (Homo sapiens, UniProt P24387+Q13324); experiment: activators of CRF receptor 2 with binding protein – uHTS hits, confirmation (AID 602473); type: functional; details: read-out: EC50_Mean
T4 sequence (Q13324 whole entry): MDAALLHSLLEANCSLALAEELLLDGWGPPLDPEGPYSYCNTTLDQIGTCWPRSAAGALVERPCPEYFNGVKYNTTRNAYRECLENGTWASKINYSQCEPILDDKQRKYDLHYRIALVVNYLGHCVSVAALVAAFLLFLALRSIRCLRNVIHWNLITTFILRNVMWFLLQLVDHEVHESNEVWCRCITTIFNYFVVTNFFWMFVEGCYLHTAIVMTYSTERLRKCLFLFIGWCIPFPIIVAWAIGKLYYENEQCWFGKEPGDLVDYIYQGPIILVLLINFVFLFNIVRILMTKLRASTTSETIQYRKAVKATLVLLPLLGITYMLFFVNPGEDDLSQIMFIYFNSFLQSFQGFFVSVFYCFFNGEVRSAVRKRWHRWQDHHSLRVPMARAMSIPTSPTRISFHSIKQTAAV
T4 sequence (P24387 whole entry): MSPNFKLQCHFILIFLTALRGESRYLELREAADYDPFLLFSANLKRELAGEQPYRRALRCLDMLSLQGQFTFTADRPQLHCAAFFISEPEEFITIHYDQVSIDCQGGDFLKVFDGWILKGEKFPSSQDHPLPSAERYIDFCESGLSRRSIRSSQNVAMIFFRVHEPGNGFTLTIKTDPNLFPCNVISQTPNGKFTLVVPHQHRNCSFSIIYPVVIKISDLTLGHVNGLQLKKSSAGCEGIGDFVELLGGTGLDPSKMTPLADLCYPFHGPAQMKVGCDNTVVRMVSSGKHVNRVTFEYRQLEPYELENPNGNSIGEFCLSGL

For `CCn1c(CN2CCCCCC2=O)nnc1SCc1cnc(-c2ccccc2)s1`, the EC50 [1] was 68 µM (inconclusive) and the EC50 [2] was 1.47 µM (active).
With `CN(C)c1ccc2c3c(ccc(N(C)C)c13)C(=O)OC2` the AC50 [3] was 8.4 µM (active).
In the case of `COc1ccc(/C=C/C(=O)N(c2ccccn2)C2CCCCC2)cc1OC`, the EC50 [1] is reported as > 150 µM (inactive) and the EC50 [2] is reported as > 38 µM (not active).
With `Sc1nc(-c2ccccc2)c[nH]1` the AC50 [3] was 0.904 µM (active).
In the case of `O=C(CNS(=O)(=O)c1ccc(Br)s1)NCC1COc2ccccc2O1` (stereo not drawn), the EC50 [1] is reported as > 150 µM (inactive) and the EC50 [2] is reported as > 38 µM (not active).
In the case of `COc1ccc(-c2nc3cnc(N4CCNCC4)nc3n(Cc3cccc(OC)c3)c2=O)cc1`, the AC50 (Cytochrome P450 1A2) is reported as 31.6 µM (inconclusive), the AC50 (Cytochrome P450 2C19) is reported as 39.8 µM (inconclusive) and the AC50 (Cytochrome P450 2D6) is reported as 39.8 µM (inconclusive).
In the case of `CC(=O)c1c(C)nc(-c2cccc([N+](=O)[O-])c2)n1O`, the EC50 [1] is reported as 69.2 µM (active) and the EC50 [2] is reported as 4.84 µM (active).
With `CCCn1c(NCc2ccc3c(c2)OCO3)nc2ccccc21` the AC50 [3] was 18.9 µM (active).
For `Nc1nnc(C(=O)c2ccccc2N)s1`, the EC50 [4] was 14.7 µM (active) and the EC50 [5] was 3.86 µM (active).
With `c1ccc(NNC2=NCCCCC2)cc1` the AC50 [3] was 0.596 µM (active) and the AC50 [6] was 0.898 µM (active).
In the case of `O=C(CCl)Nc1cccn2ncnc12`, the CC50 [7] is reported as 32.6 µM (active).
With `C=CCN1C(=O)NC(=O)/C(=C/c2cc3c4c(c2)CCCN4CCC3)C1=O` the AC50 [3] was 2.31 µM (active).
With `CC1=NN(c2nc(-c3ccc(Cl)cc3)cs2)C(=O)C1` the AC50 [6] was 5.37 µM (active).
With `COc1ccc(NC(=O)N2CCC3(CC2)CCN(C(=O)c2cnccn2)CC3)cc1` the AC50 (Cytochrome P450 1A2) was 10 µM (inconclusive) and the AC50 (Cytochrome P450 2C9) was 31.6 µM (inconclusive).
With `O=C(CSc1nc2ccccc2[nH]1)NCCN1CCCCC1` the AC50 (Cytochrome P450 1A2) was 0.316 µM (inconclusive), the AC50 (Cytochrome P450 2C19) was 22.4 µM (inconclusive) and the AC50 (Cytochrome P450 2D6) was 1.78 µM (inconclusive).
In the case of `COc1ccc(C(=O)Nc2ccccc2C(=O)Nc2ccccc2C(=O)O)cc1`, the EC50 [1] is reported as > 160 µM (inactive) and the EC50 [2] is reported as 3.49 µM (active).
In the case of `COc1c(Cl)cc(Cl)cc1CNCCNCCO`, the AC50 (Cytochrome P450 1A2) is reported as 28.2 µM (inconclusive) and the AC50 (Cytochrome P450 2C9) is reported as 22.4 µM (inconclusive).
With `COC(=O)c1ccc(-n2c(CCC(=O)O)ccc2-c2ccc(C)cc2)cc1` the EC50 [4] was > 300 µM (not active) and the EC50 [5] was > 300 µM (not active).
In the case of `COc1cc(OC)cc(C(=O)N2CCCC(Nc3ccc(F)cc3)C2)c1` (stereo not drawn), the AC50 [3] is reported as 1.97 µM (active).
For `O=C1CS[C@@H](c2ccccc2Cl)c2cc(Cl)ccc2N1`, the AC50 (Cytochrome P450 1A2) was 39.8 µM (inconclusive).
With `C[C@H]([C@@H](N)C(=O)N[C@@H](C(=O)O)[C@@H]1O[C@H](n2ccc(=O)[nH]c2=O)[C@@H](O)[C@H]1O)[C@@H](O)c1ccc(O)cn1` the EC50 [1] was > 150 µM (inactive) and the EC50 [2] was 3.67 µM (active).
With `COc1ccccc1C1C(C(C)=O)=C(C)N=c2s/c(=C\c3cc(OC)c(OC)c(OC)c3)c(=O)n21` (stereo not drawn) the EC50 [4] was > 300 µM (not active) and the EC50 [5] was > 300 µM (not active).
In the case of `Nc1c(-c2ccccc2)cnn1-c1cccc([N+](=O)[O-])c1`, the AC50 (Cytochrome P450 2C9) is reported as 28.2 µM (inconclusive) and the AC50 [3] is reported as 0.125 µM (active).
In the case of `COc1ccccc1NC(=O)/C(C#N)=C/c1cc([N+](=O)[O-])ccc1N1CCCC1`, the EC50 [8] is reported as 7.66 µM (active), the EC50 [4] is reported as 7.27 µM (inconclusive) and the EC50 [5] is reported as 4.59 µM (inconclusive).
In the case of `CCOc1nn(-c2ccc(Cl)cc2)c(O)c1/C=N/c1ccc(O)cc1`, the AC50 (Cytochrome P450 1A2) is reported as 3.55 µM (inconclusive) and the AC50 (Cytochrome P450 2C9) is reported as 3.55 µM (inconclusive).
With `CC(NC(=O)CCl)c1ccc(Cl)c(Cl)c1` (stereo not drawn) the CC50 [7] was 8.91 µM (active).
With `O=[N+]([O-])c1cccc(-c2nnc(S)n2-c2ccc(Br)cc2)c1` the AC50 [3] was 3.63 µM (active).
In the case of `CCn1cc(C=C2C(=O)N(C)C(=O)N(C)C2=O)c2ccccc21`, the EC50 [4] is reported as > 300 µM (not active) and the EC50 [5] is reported as > 300 µM (inconclusive).
For `C[C@@H]1Cc2c(O)c(O)cc(O)c2C(=O)O1`, the EC50 [4] was 104 µM (active) and the EC50 [5] was 13.5 µM (active).
In the case of `Cc1c(NC(=O)c2ccc([N+](=O)[O-])o2)cccc1-c1nc2ncccc2o1`, the AC50 [6] is reported as 4 µM (active) and the CC50 [7] is reported as > 40 µM (active).
In the case of `CC1=C/C(=C(/c2ccc(O)c(C)c2)c2ccccc2C(=O)O)C=CC1=O`, the AC50 (Cytochrome P450 1A2) is reported as 3.16 µM (inconclusive).
With `Cc1cc(=O)oc(C)c1C(=O)Nc1ccc2ncccc2c1` the EC50 [8] was 24.2 µM (active).
With `CCN(CCNC(=O)C1CC(=O)N(CCc2ccccc2)C1)c1ccccc1` (stereo not drawn) the AC50 [3] was 0.288 µM (active).
With `Cc1ccc(S(=O)(=O)Nc2ccccc2F)cc1C(=O)NNC(=O)c1ccccc1O` the EC50 [4] was 149 µM (inconclusive) and the EC50 [5] was 1.75 µM (inconclusive).
With `Cc1ccc(/C=C2\C(=O)Nc3ccccc32)o1` the CC50 [7] was > 40 µM (active).
For `Cc1noc(C)c1S(=O)(=O)NCCN1CCN(c2ccccc2)CC1`, the AC50 [3] was 3.33 µM (active).
With `C[C@@H](C(=O)NCc1ccc(S(C)(=O)=O)cc1)[C@H]1C[C@]1(C)[C@H](NC(=O)OCc1ccccc1)c1ccccc1` the AC50 (Cytochrome P450 1A2) was 12.6 µM (inconclusive).
For `CCc1ccccc1N1C(=O)c2cccc3c(N4CCOCC4)c([N+](=O)[O-])cc(c23)C1=O`, the AC50 (Cytochrome P450 1A2) was 10 µM (inconclusive).
In the case of `CNCC[C@H](Oc1ccccc1C)c1ccccc1`, the AC50 (Cytochrome P450 1A2) is reported as 15.8 µM (inconclusive).
With `O=C(CSc1nc(O)c2c(C(F)(F)F)cc(-c3cccs3)nc2n1)Nc1c(F)c(F)c(F)c(F)c1F` the AC50 [6] was 1.04 µM (active).
In the case of `Nc1[nH]c(N=NC(=O)c2ccc(F)cc2)c2ccccc12`, the AC50 [3] is reported as 0.24 µM (active).
In the case of `CNc1nc(NCCOC23CC4CC(CC(C4)C2)C3)nc(OCC(F)(F)F)n1`, the AC50 (Cytochrome P450 1A2) is reported as 12.6 µM (inconclusive) and the AC50 (Cytochrome P450 2C9) is reported as 15.8 µM (inconclusive).
In the case of `Cc1ccc(S(=O)(=O)N2CCC(=O)N(C(COCc3ccc(C(F)(F)F)cc3)Cc3ccccc3)CC2)cc1` (stereo not drawn), the EC50 [8] is reported as 4.81 µM (active).
